Assay results as given in the supplement of paper PMC10307832.

Legend:
Assay in all cases: relative viability (nuclei count vs DMSO), 5 days (fraction); higher = more cells survive
Cediranib + Foretinib = compound: COc1cc2c(Oc3ccc4[nH]c(C)cc4c3F)ncnc2cc1OCCCN1CCCC1 [Cediranib] + COc1cc2c(Oc3ccc(NC(=O)C4(C(=O)Nc5ccc(F)cc5)CC4)cc3F)ccnc2cc1OCCCN1CCOCC1 [Foretinib] (partner 0.25 µM)
Procedure, shortened: (§1)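 Lung cancer cell lines, seeded in 1536-well plates, were treated the following day by pin tool with a single drug or with five library-drug doses (not always all listed) in √10 steps on top of a fixed anchor-drug dose. Cells were fixed and nuclei stained in one step after 5 days, and nuclei were counted. Relative viability is the nuclei count for treated wells divided by that for vehicle wells, reported as medians of duplicate plates.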

Cediranib + Vorinostat = compound: COc1cc2c(Oc3ccc4[nH]c(C)cc4c3F)ncnc2cc1OCCCN1CCCC1 [Cediranib] + O=C(CCCCCCC(=O)Nc1ccccc1)NO [Vorinostat] (partner 1 µM)
Procedure, shortened: as §1

[1] = compound: O=C(C[C@H]1NCCC[C@@H]1O)Cn1cnc2cc(Br)c(Cl)cc2c1=O (racemic) [Halofuginone] + CC(C)C[C@H](NC(=O)[C@H](Cc1ccccc1)NC(=O)c1cnccn1)B(O)O [Bortezomib] (partner 0.002 µM)
Procedure, shortened: as §1

[2] = compound: O=C(C[C@H]1NCCC[C@@H]1O)Cn1cnc2cc(Br)c(Cl)cc2c1=O (racemic) [Halofuginone] + CCNC(=O)c1noc(-c2cc(C(C)C)c(O)cc2O)c1-c1ccc(CN2CCOCC2)cc1 [Luminespib] (partner 0.01 µM)
Procedure, shortened: as §1

Row | Cell Line | relative viability (Cediranib + Foretinib; first compound 0.04 µM) | relative viability (Cediranib + Foretinib; first compound 0.1265 µM) | relative viability (Cediranib + Foretinib; first compound 0.4 µM) | relative viability (Cediranib + Foretinib; first compound 1.265 µM) | relative viability (Cediranib + Foretinib; first compound 4 µM) | relative viability (Cediranib + Vorinostat; first compound 0.04 µM) | relative viability (Cediranib + Vorinostat; first compound 0.1265 µM) | relative viability (Cediranib + Vorinostat; first compound 0.4 µM) | relative viability (Cediranib + Vorinostat; first compound 1.265 µM) | relative viability (Cediranib + Vorinostat; first compound 4 µM) | relative viability ([1]; first compound 0.001 µM) | relative viability ([1]; first compound 0.003162 µM) | relative viability ([1]; first compound 0.01 µM) | relative viability ([1]; first compound 0.03162 µM) | relative viability ([1]; first compound 0.1 µM) | relative viability ([2]; first compound 0.001 µM) | relative viability ([2]; first compound 0.003162 µM) | relative viability ([2]; first compound 0.01 µM) | relative viability ([2]; first compound 0.03162 µM) | relative viability ([2]; first compound 0.1 µM)
1 | LCLC-103H | 0.819 | 0.964 | 0.686 | 0.823 | 0.832 | 0.824 | 0.572 | 0.767 | 0.78 | 0.898 | 1.06 | 0.9 | 1.1 | 0.956 | 1.03 | 0.948 | 1.1 | 0.968 | 0.989 | 0.805
2 | LOU-NH91 | 0.903 | 1.12 | 0.859 | 0.961 | 0.829 | 0.898 | 0.696 | 0.873 | 0.823 | 0.857 | 0.461 | 0.498 | 0.484 | 0.459 | 0.535 | 0.332 | 0.361 | 0.354 | 0.346 | 0.339
3 | LU99A | 0.793 | 0.728 | 0.8 | 0.769 | 0.832 | 0.456 |  | 0.51 | 0.407 | 0.578 | 1.15 | 1.1 | 1.07 | 1.14 | 0.8 | 0.244 | 0.281 | 0.238 | 0.239 | 0.174
4 | LXF-289 | 1.02 | 0.822 | 0.912 | 0.982 | 0.936 | 0.754 |  | 0.724 | 0.812 | 0.787 | 0.928 | 1.08 | 0.985 | 0.996 | 0.908 | 0.664 | 0.701 | 0.699 | 0.763 | 0.317
5 | NCI-H23 | 1.07 |  | 0.939 | 0.863 | 1.03 | 0.545 | 0.487 | 0.532 | 0.587 | 0.789 | 1 | 1.24 | 1.02 | 0.947 | 0.494 | 0.213 | 0.184 | 0.203 | 0.203 | 0.231
6 | NCI-H322M | 1.15 | 1.04 | 0.946 | 0.912 | 0.922 | 0.876 | 1.05 | 0.818 | 0.983 | 0.871 | 1.16 | 1.13 | 1.28 | 1.16 | 0.997 | 0.944 | 0.855 | 0.915 | 0.719 | 0.318
7 | NCI-H441 | 1.09 |  | 0.87 | 0.794 | 1.14 | 0.864 | 0.825 | 0.767 | 0.824 | 0.909 | 0.456 | 0.457 | 0.6 | 0.491 | 0.433 | 0.352 | 0.292 | 0.487 | 0.306 | 0.213
8 | NCI-H460 | 1.01 | 1.02 | 1.02 | 0.944 | 1.04 | 0.795 | 0.792 | 0.661 | 0.678 | 0.822 | 1.07 | 1.09 | 0.922 | 0.66 | 0.0555 | 0.0339 | 0.0272 | 0.0348 | 0.0271 | 0.0193
9 | NCI-H520 | 0.859 | 0.656 | 0.626 | 0.731 | 0.576 | 0.792 | 0.622 | 0.581 | 0.576 | 0.676 | 0.723 | 0.721 | 0.494 | 0.579 | 0.314 | 0.232 | 0.241 | 0.185 | 0.206 | 0.236
10 | NCI-H596 | 1.04 | 0.833 | 0.974 |  | 0.926 | 0.584 | 0.488 | 0.585 | 0.682 | 0.836 | 1 | 1.01 | 0.934 | 1.01 | 0.698 | 1.02 | 1.23 | 1.06 | 0.941 | 0.324
11 | NCI-H647 | 1.14 | 1.25 | 1.03 | 1.27 | 1.3 | 0.689 | 0.594 | 0.56 | 0.509 | 0.684 | 1.2 | 1.1 | 0.833 | 0.912 | 0.367 | 0.141 | 0.153 | 0.147 | 0.137 | 0.129
12 | NCI-H650 | 1.03 | 0.944 | 1 | 1.09 | 1.02 | 0.363 | 0.319 | 0.526 | 0.356 | 0.454 | 0.903 | 0.877 | 0.717 | 0.694 | 0.576 | 0.793 | 0.738 | 0.822 | 0.667 | 0.59
13 | NCI-H661 | 1.04 | 0.971 | 0.956 | 0.978 | 1.11 | 0.905 | 0.796 | 0.763 | 0.773 | 0.911 | 0.848 | 0.826 | 0.845 | 0.822 | 0.536 | 0.83 | 0.953 | 0.88 | 0.696 | 0.504
14 | NCI-H727 |  | 1.05 | 0.868 | 0.84 | 0.93 | 0.934 | 0.913 | 1.08 | 1.21 | 1.27 | 0.981 | 0.798 | 0.927 | 0.856 | 0.468 | 0.258 | 0.327 | 0.435 | 0.389 | 0.355
15 | NCI-H838 | 1.02 | 1.02 | 0.994 | 1.01 | 1.05 | 0.703 | 0.712 | 0.678 | 0.763 | 0.838 | 1.16 | 1.03 | 0.746 | 0.614 | 0.121 | 0.366 | 0.257 | 0.335 | 0.349 | 0.158
16 | NCI-H1355 | 0.991 | 1.02 | 0.894 | 0.948 | 1.09 | 0.688 | 0.684 | 0.572 | 0.544 | 0.616 | 1.13 | 1.19 | 1.18 | 1.24 | 0.951 | 0.716 | 0.635 | 0.672 | 0.672 | 0.579
